This is an account of results in US7504433B2, “Thiophene derivative PPAR modulators” (Eli Lilly and Company, priority 2003, dated 2009).

In the case of `Cc1cc(OC[C@@H](C)c2sc(-c3ccc(C(F)(F)F)cc3)cc2C)ccc1CCC(=O)O` (single isomer, unassigned) [Example 16, 3-(2-Methyl-4-{2-[3-methyl-5-(4-trifluoromethylphenyl)thiophen-2-yl]propoxy}-phenyl)propionic acid], the melting point is 126.2 to 132.6 °C.
